These results are taken from patent publication US8440830B2, “Tetrahydro-fused pyridines as histone deacetylase inhibitors” (4SC AG, priority 2007, dated 2013).

A word on the pEC50: it is −log10 of the EC50, conventionally taken in molar units. The IC50 is the concentration that inhibits the measured activity by half. Usually pIC50 stands for the IC50 on a negative log10 scale, so that one unit is a factor of ten.

Holding throughout (format): cell-based
Experiment [1] relates to histone H3 hyperacetylation in HeLa cervical carcinoma cells. In words: Cellular histone H3 hyperacetylation assay. The conditions noted are these: Homo sapiens, 24 h treatment. Summed up:
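HeLa cells treated with compound for 24 h, then fixed, permeabilized and immunostained for acetylated histone H3 (K1-20) with an Alexa Fluor 488 secondary. High-content imaging scored the percentage of cells with nuclear fluorescence; EC50 from concentration-effect curves by non-linear regression.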

Another experiment concerns A549 NSCLC cells. Put plainly: Cellular cytotoxicity assay (Alamar Blue), A549. The conditions noted are these: Homo sapiens, 72 h, upper end given as ≧100, read-out: IC50 (μM), cytotoxicity towards A549 NSCLC cells. Summed up:
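Resazurin-to-resorufin fluorescence (ex 544, em 590 nm, after 4 h) gave viability as % of untreated cells following 72 h compound exposure at 37 °C. Compounds were added in semi-logarithmic dilutions 24 h post-seeding, quadruplicate wells; IC50 fitted by non-linear regression of concentration-effect curves.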

Experiment [2] relates to RKO colon carcinoma cells with conditional p21^waf1 expression. In words: Cell cycle dependent cytotoxicity, RKO exop21 cell system. The conditions noted are these: Homo sapiens, 72 h. The method, then: (§1) The anti-proliferative activity of the histone deacetylase inhibitory compounds as described herein, is evaluated using the following cell lines: HeLa and HeLa-KB (cervical carcinoma), H460 (non small cell lung cancer), A549 (non-small cell lung cancer), MCF7 (breast carcinoma), MCF10A (normal, non tumorigenic breast epithelial), MDA-MB468 (breast carcinoma), MDA-MB435 (breast carcinoma), MDA-MB231 (breast carcinoma), SKBR-3 (breast carcinoma), SKOV-3 (ovarial carcinoma), A-2780 (ovarial carcinoma), RKO (colon carcinoma), HCT-15 (colon carcinoma), HCT-116 (colon carcinoma), PC3 (prostate carcinoma), BPH1 (benign prostate hyperplasia), AsPC1 (pancreatic carcinoma), Ca127 (tongue carcinoma), A-431 (vulva carcinoma), Hec1A (endometrial carcinoma), Saos-2 (osteosarcoma), U87MG (glioblastoma), WM266-4 (melanoma), K562 (chronic myeloid leukemia), EOL1 (acute hypereosinophilic myeloid leukemia), CCRF-CEM and CCRF-CEM VCR1000 (acute lymphoblastic leukemia sensitive and resistant towards Vincristine). For quantification of cellular proliferation/living cells the Alamar Blue (Resazurin) cell viability assay is applied (O'Brien et al. Eur J Biochem 267, 5421-5426, 2000). In this assay Resazurin is reduced to the fluorescent resorufine by cellular dehydrogenase activity, correlating with viable, proliferating cells. The examples are dissolved as 20 mM solutions in dimethylsulfoxide (DMSO) and subsequently diluted in semi-logarithmic steps. Cell lines are seeded at respective density into 96 well flat bottom plates in a volume of 200 μl per well. 24 h after seeding 1 μl each of the compound dilutions are added into each well of the 96 well plate. Each compound dilution is tested as quadruplicates. Wells containing untreated control cells are filled with 200 μl DMEM medium containing 0.5% v:v DMSO. The cells are then incubated with the compounds for 72 h at 37° C. in a humidified atmosphere containing 5% carbon dioxide. To determine the viability of the cells, 20 μl of a Resazurin solution (Sigma; 90 mg/l) are added. After 4 h incubation at 37° C. the fluorescence is measured at an extinction of λ=544 nm and an emission of λ=590 nm. For the calculation of the cell viability the emission value from untreated cells is set as 100% viability and the emission rates of treated cells are set in relation to the values of untreated cells. Viabilities are expressed as % values. The corresponding IC50 values of the compounds for cytotoxic activity are determined from the concentration-effect curves by means of non-linear regression.
For determination of cell-cycle dependent cytotoxicity, the RKO exop21 cell system is applied (Schmidt et al. Oncogene 19: 2423-2429, 2000). Briefly, RKO cells with/without p21^waf1 expression (2×10^4 cells/well induced, 6×10^3 cells/well not induced) are treated with the compounds for 72 h and metabolic activity quantified as described before. The expression of p21^waf1 was induced by treatment with Pronasterone A, causing a complete proliferation arrest of RKO cells in the G1 and G2 phases of the cell division cycle.

For experiment [3], the system named is fully transformed malignant cancer cell lines. In words: Anti-proliferative activity, selection of cell lines (Alamar Blue). The settings on record: Homo sapiens, 72 h, mean over cell lines, read-out: Mean IC50 values as calculated for fully malignant cancer cell lines. How it is done: as §1
The anti-proliferative activity of compounds from examples 1, 2, 3, 12 and 150 is evaluated by using a broad selection of non-malignant cell lines and fully transformed malignant cancer cell lines.

[4] abbreviates: read-out: EC50, induction of histone H3 hyperacetylation.
The mark [5] stands for this setting: read-out: −lg EC50, induction of histone H3 hyperacetylation.
[6] abbreviates: RKO arrested, p21^waf1 expressed, read-out: RKO arrested (p21^waf1 expressed) IC50.
[7] abbreviates: RKO proliferating, p21^waf1 not induced, read-out: RKO proliferating IC50.

pEC50, pIC50: −log10 of the molar value. Read-outs that look alike come from different tables or passages of the source.

For the compound `Nc1ccccc1NC(=O)c1nc2c(s1)CN(C(=O)Nc1ccc(-c3ccccc3)cc1)CC2` [Example 1, N^2-(2-aminophenyl)-N5-biphenyl-4-yl-6,7-dihydro[1,3]thiazolo[5,4-c]pyridine-2,5(4H)-dicarboxamide], the pEC50 in experiment [1] (setting [4]) was 4.82 to 6.82; in experiment [1] (setting [5]), 4.80 to 6.60. In addition, the IC50 in the experiment with A549 NSCLC cells was at least 0.2 µM. In addition, the pIC50 is 5.31 to 5.96 in experiment [2] (setting [6]), 5.40 to 5.96 in experiment [2] (setting [7]) and 5.27 to 5.62 in experiment [3].
Turning to `CN(C)c1ccc(NC(=O)N2CCc3nc(C(=O)Nc4ccccc4N)sc3C2)cc1` [Example 2, N^2-(2-aminophenyl)-N5-[4-(dimethylamino)phenyl]-6,7-dihydro[1,3]thiazolo[5,4-c]pyridine-2,5(4H)-dicarboxamide], the negative-log EC50 (pEC50) in experiment [1] (setting [4]) was 4.82 to 6.82; in experiment [1] (setting [5]) it was 4.80 to 6.60. Further, the IC50 in the experiment with A549 NSCLC cells was at least 0.2 µM. Also, the negative-log IC50 (pIC50) in experiment [2] (setting [6]) was 5.31 to 5.96; in experiment [2] (setting [7]), 5.40 to 5.96; in experiment [3], 5.27 to 5.62.
`COc1ccc(NC(=O)N2CCc3nc(C(=O)Nc4ccccc4N)sc3C2)cc1` [Example 3, N^2-(2-aminophenyl)-N5-(4-methoxyphenyl)-6,7-dihydro[1,3]thiazolo[5,4-c]pyridine-2,5(4H)-dicarboxamide]: the negative-log EC50 (pEC50) in experiment [1] (setting [4]) is 4.82 to 6.82; in experiment [1] (setting [5]), 4.80 to 6.60. In addition, the 50% inhibitory concentration (IC50) with A549 NSCLC cells is at least 0.2 µM. Also, the pIC50 in experiment [2] (setting [6]) is 5.31 to 5.96; in experiment [2] (setting [7]), 5.40 to 5.96; in experiment [3] it was 5.27 to 5.62.
In the case of `Nc1ccccc1NC(=O)c1nc2c(s1)CN(C(=O)Nc1cnc3ccccc3c1)CC2` [Example 12, N^2-(2-aminophenyl)-N5-quinolin-3-yl-6,7-dihydro[1,3]thiazolo[5,4-c]pyridine-2,5(4H)-dicarboxamide], the results for the pEC50 in experiment [1] (setting [4]) and in experiment [1] (setting [5]) were 4.82 to 6.82 and 4.80 to 6.60, respectively. Besides, the concentration for half-maximal inhibition (IC50) in the experiment on A549 NSCLC cells was at least 0.2 µM. Further, the negative-log IC50 (pIC50) in experiment [2] (setting [6]) is 5.31 to 5.96; in experiment [2] (setting [7]) it was 5.40 to 5.96; in experiment [3], 5.27 to 5.62.
